Source: the supplement of paper PMC11451515

Test system: NOMO1
Assay: cell viability relative to DMSO control; higher = less cytotoxic
Conditions: 48 h
Outline: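 NOMO1 or SEM (500 cells/well) or P12-Ichikawa (1000 cells/well) leukemia cells were adapted for at least four passages in each medium. They were seeded in 1536-well plates (5 μl) and pin-dosed with library compounds in DMSO over an 11-point threefold series, 47 μM to 0.79 nM. CellTiter-Glo One luminescence was read after 48 h at 37°C. Viability is the per-plate percentage relative to DMSO wells, with cell-free wells as background.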

[1] = HPLM + 10% dialyzed FBS, 0.000781 µM
[2] = HPLM + 10% dialyzed FBS, 0.00234 µM
[3] = HPLM + 10% dialyzed FBS, 0.00702 µM
[4] = HPLM + 10% dialyzed FBS, 0.0211 µM
[5] = HPLM + 10% dialyzed FBS, 0.0632 µM
[6] = HPLM + 10% dialyzed FBS, 0.19 µM
[7] = HPLM + 10% dialyzed FBS, 0.569 µM
[8] = HPLM + 10% dialyzed FBS, 1.71 µM
[9] = HPLM + 10% dialyzed FBS, 5.12 µM
[10] = HPLM + 10% dialyzed FBS, 15.4 µM
[11] = HPLM + 10% dialyzed FBS, 46.1 µM
[12] = RPMI 5 mM glucose + 10% FBS, 0.000781 µM
[13] = RPMI 5 mM glucose + 10% FBS, 0.00234 µM
[14] = RPMI 5 mM glucose + 10% FBS, 0.00702 µM
[15] = RPMI 5 mM glucose + 10% FBS, 0.0211 µM
[16] = RPMI 5 mM glucose + 10% FBS, 0.0632 µM
[17] = RPMI 5 mM glucose + 10% FBS, 0.19 µM
[18] = RPMI 5 mM glucose + 10% FBS, 0.569 µM
[19] = RPMI 5 mM glucose + 10% FBS, 1.71 µM
[20] = RPMI 5 mM glucose + 10% FBS, 5.12 µM
[21] = RPMI 5 mM glucose + 10% FBS, 15.4 µM
[22] = RPMI 5 mM glucose + 10% FBS, 46.1 µM
[23] = RPMI 5 mM glucose + 10% dialyzed FBS, 0.000781 µM
[24] = RPMI 5 mM glucose + 10% dialyzed FBS, 0.00234 µM
[25] = RPMI 5 mM glucose + 10% dialyzed FBS, 0.00702 µM
[26] = RPMI 5 mM glucose + 10% dialyzed FBS, 0.0211 µM
[27] = RPMI 5 mM glucose + 10% dialyzed FBS, 0.0632 µM
[28] = RPMI 5 mM glucose + 10% dialyzed FBS, 0.19 µM
[29] = RPMI 5 mM glucose + 10% dialyzed FBS, 0.569 µM
[30] = RPMI 5 mM glucose + 10% dialyzed FBS, 1.71 µM
[31] = RPMI 5 mM glucose + 10% dialyzed FBS, 5.12 µM
[32] = RPMI 5 mM glucose + 10% dialyzed FBS, 15.4 µM
[33] = RPMI 5 mM glucose + 10% dialyzed FBS, 46.1 µM

SMILES	cell viability [1] [%]	cell viability [2] [%]	cell viability [3] [%]	cell viability [4] [%]	cell viability [5] [%]	cell viability [6] [%]	cell viability [7] [%]	cell viability [8] [%]	cell viability [9] [%]	cell viability [10] [%]	cell viability [11] [%]	cell viability [12] [%]	cell viability [13] [%]	cell viability [14] [%]	cell viability [15] [%]	cell viability [16] [%]	cell viability [17] [%]	cell viability [18] [%]	cell viability [19] [%]	cell viability [20] [%]	cell viability [21] [%]	cell viability [22] [%]	cell viability [23] [%]	cell viability [24] [%]	cell viability [25] [%]	cell viability [26] [%]	cell viability [27] [%]	cell viability [28] [%]	cell viability [29] [%]	cell viability [30] [%]	cell viability [31] [%]	cell viability [32] [%]	cell viability [33] [%]
COc1ccc(-c2ccc3ncc4c(c3c2)n(-c2ccc(N3CCNCC3)c(C(F)(F)F)c2)c(=O)n4C)cn1	97.7	79.7	57.1	67	51.5	45.9	47.4	24.6	4.81	3.74	2.4	105	100	90.4	79.7	70	54.5	49.1	32.6	32	4.07	3.17	94.5	78.3	70.9	70.5	57	46.1	42.9	29.8	5.1	3.25	1.92
CN(C)[S+](=O)([O-])c1ccc2c(c1)C(=Cc1cc3c([nH]1)CCCC3)C(=O)N2	124	141	122	128	130	122	122	146	120	127	118	125	112	121	115	109	115	123	111	113	108	105											
COC(=O)Nc1cc(Nc2cc(NC3CC3)c3ncc(C#N)n3n2)c(Cl)c(N2CCN(C)CC2)c1	117	114	104	107	108	112	93.7	86.7	64.5	45.6	4.67	88.7	112	108	110	93.3	110	84.5	89.7	57.6	30.1	4.34	104	98.2	99.4	94.3	93	106	85.3	66.9	45.1	34.5	3.22
Cc1ccccc1C(=O)c1ccc(Nc2ccc(Br)cc2N)cc1Cl												107	123	116	122	120	113	110	121	116	103	90.1	131	116	112	120	118	126	107	121	114	93.7	71.5
O=C1[C@H](Cc2ccc(O)cc2)N2C(=O)CCN(C(=O)NCc3ccccc3)[C@H]2CN1Cc1cccc2ccccc12	86.9	82.6	88.9	97.3	92.1	78.6	86.3	85	74.9	18.3	74	81.7	78.7	86.9	81	83.1	73.9	83.7	73.5	73.1	10.6	81.1	76.7	89.9	89.5	104	92.5	89.5	84.2	82.7	79.2	13.7	82.8
CN[C@@H]1[C@@H](O)[C@@H](O[C@@H]2[C@@H](O)[C@H](O[C@H]3O[C@H](CN)[C@@H](O)[C@H](O)[C@H]3O)[C@@H](N)C[C@H]2NC(=O)[C@@H](O)CN)OC[C@]1(C)O	120	132	115	135	148	130	140	110	113	103	120												130	115	110	127	112	132	116	107	99.9	117	98.6
CCCCC(=O)O[C@]1(C(=O)CO)[C@H](C)C[C@H]2[C@@H]3CCC4=CC(=O)C=C[C@]4(C)[C@@]3(F)[C@@H](O)C[C@@]21C	122	129	124	135	131	124	127	122	123	123	116																						
C[C@](Cc1c[nH]c2ccccc12)(NC(=O)OC1C2CC3CC(C2)CC1C3)C(=O)NC[C@H](NC(=O)CCC(=O)O)c1ccccc1 (some centres undefined)	123	94	130	135	148	142	134	145	157	154	141	114	128	120	126	120	127	125	126	151	153	147	106	123	120	132	132	133	153	129	139	147	153
